Key:
[1] = tested on: T1, CcOMT1; experiment: HPLC of methylated product, Michaelis-Menten non-linear fit; type: biochemical, Citrus reticulata; details: 5 mM SAM, pH 6.0 phosphate, 50 °C, 2 h, 1 mM DTT
T1 construct: full-length cDNA from CRC leaf cDNA library, BamHI/XhoI in pET-28a(+), E. coli BL21(DE3), Ni-NTA purified; ORF printed 1080 bp but 366 aa printed (inconsistent); primers encode N-terminus MGSTSSE, C-terminus MEFLKSA
Source text: HPLC of methylated product, Michaelis-Menten non-linear fit on CcOMT1 | For kinetic studies of CcOMT1 and its variant CcOMT1-W141Y toward natsudaidain

[2] = tested on: T1, CcOMT1; experiment: as above; type: biochemical, Citrus reticulata; details: 5 mM SAM, pH 6.0 phosphate, 50 °C, 2 h, 1 mM DTT; remark: listed apart in the source
Method: HPLC of methylated product, Michaelis-Menten non-linear fit on CcOMT1 | To determine the kinetic parameters of CcOMT1, the Michaelis–Menten constant (Km) was determined

Compound `COc1ccc(-c2oc3c(OC)c(OC)c(OC)c(OC)c3c(=O)c2O)cc1OC` [compound 1, natsudaidain] has a Km [1] of 20.8 ± 7.6 µM and a Km [2] of 25.4 ± 11.3 µM.
